Laboratory results published in patent US20240189263A1, “DERIVATIZED C60 MOLECULES AND METHODS AND MATERIALS FOR USING DERIVATIZED C60 MOLECULES TO REDUCE RADIATION INJURY” (Mayo Foundation for Medical Education and Research, priority 2021, published 2024).

How the values were obtained:
Format in all cases: cell-based
[1] = system: N2A cells; assay: ROS by H2-DCFDA probe after proton irradiation, N2A; conditions: 50 μM, positive control
Text: (§1) Cell lines were irradiated using pencil beam scanning (PBS) proton beams produced by IBA ProteusOne (Ion Beam Applications, Louvain-la-Neuve, Belgium). Single layer mono-energy 227 MeV pencil beams with uniform spacing of 0.25 cm between each spot were used to create a large field size with uniform dose distribution (±2%) that encompassed all sample wells containing the cells. A fixed source to surface distance (SSD) setup and gantry at 180 degrees was used to delivery 0.5, 1, 2, 4, and 6 Gray (Gy) dose of ionizing radiation to cells. The cells were place at an 8 cm depth, with a linear energy transfer (LET) of approximately 1.7 keV/μm, using solid water slabs as a buildup. […] The monitor units needed to deliver the intended dose were calculated using the measure dose/MU values.
(§2) Post radiation, 2′,7′-dichlorodihydrofluorescein diacetate (H2-DCFDA) probes were used to measure the level of reactive oxygen species (ROS) post-proton radiation (1 Gy, 230 MeV proton beam). […] A fluorescence microplate reader (SpectraMax M5, Molecular Devices Corporation, California, USA) was used to detect the generation of fluorescent DCF molecules with an excitation filter of 485 nm and an emission filter of 525 nm, with a 515 nm cutoff filter. […] Following irradiation, the cells were transported back for plate reading, 30 minutes post radiation.

[2] = system: NIH3T3 cells; assay: ROS by H2-DCFDA probe after proton irradiation, NIH3T3; conditions: NIH3T3, 50 μM, positive control
Text: as §1, §2

[3] = system: HepG2 cells; assay: ROS by H2-DCFDA probe after proton irradiation, HepG2; conditions: control HepG2 cells, 50 μM, positive control
Text: as §1, §2

[4] = system: HUVEC cells; assay: ROS by H2-DCFDA probe after proton irradiation, HUVEC; conditions: 50 μM, positive control
Text: as §1, §2

Measured: ROS (H2-DCFDA fluorescence)

CC(=O)N[C@@H](CS)C(=O)O [NAC, N-acetyl cysteine, reference compound]
decrease in ROS: all assays above
